Measured values as given in patent US20240352016A1, “A CYCLIN-DEPENDENT KINASE INHIBITOR” (TAIZHOU EOC PHARMA CO., LTD., priority 2021, published 2024).
Where a name gives a salt, the structure may show the parent alone.

What was measured:
CDK7/Cyclin H/MAT1 = molecular target: T1, CDK7/Cyclin H/MAT1 (Homo sapiens, UniProt P50613); experiment: CDK kinase activity mobility shift assay (MSA); format: biochemical; conditions: The CDK may be CDK7; mobility shift assay, 2 mM ATP, 3 nM CDK/Cyclin, 27° C. for 40 min; read-out: IC50 (CDK inhibition)
T1 construct: made in house; host or cells: insect cell
Experimental: Human CDKs, cyclins and other partner proteins were expressed in insect cell, purified individually, reconstituted and then purified to homogeneity before being used for kinase activity assay.
Kinase activity of CDKs were determined by mobility shift assay (MSA), in which the formation of a phosphorylated fluorescence-labelled peptide in reaction mixture was monitored through capillary electrophoresis in a microfluidic environment. […] The mixtures were incubated at 27° C. for 40 min before being quenched with 4 μl 80 mM EDTA, then read on a LabChip EZ Reader II (Caliper Life Science). IC50 of compound for CDKs was calculated by Prism (GraphPad) using a four-parameter nonlinear curve fit.

HCC70 = experiment: Inhibition of cell proliferation (CyQuant), HCC70; format: cell-based; conditions: Homo sapiens; HCC70 breast cancer cell line, 120 hour, CyQuant assay kit
Experimental: (§1) Exemplary compounds of the invention were tested at different concentrations (from 10 μM to 610 pM; 4-fold serial dilutions) for their ability to inhibit the proliferation of various cancer cell lines. Known kinase inhibitor staurosporine were used as positive controls. Cells were grown in the indicated media listed below. All cell lines were supplemented with FBS (Life Technologies) and 100 U-mL^−1 penicillin, 100 μg·mL^−1 streptomycin (Invitrogen) and cultured at 37° C. in a humidified chamber in the presence of 5% CO2. Proliferation assays were conducted over a 120 hour time period. CyQuant assay kit (ThermoFisher) was used to assess the anti-proliferative effects of the compounds following manufacturer's directions.
(§2) The following cancer cell lines may be tested with the exemplary media conditions indicated:
(§3) Exemplary results of these assays are set forth in Tables 3, where “A” represents an IC50 value of less than 0.2 μM; “B” represents an IC50 value of between 0.2 μM and 5 μM, inclusive; and “C” represents an IC50 value of greater than 5 μM. “NT” represents that the specified compound was not tested in the specified assay.

OVCAR3 = experiment: Inhibition of cell proliferation (CyQuant), OVCAR3; format: cell-based; conditions: Homo sapiens, OVCAR-3; OVCAR3 ovarian cancer cell line, 120 hour, CyQuant assay kit
Experimental: as §1, §2
• OVCAR3: RPMI 1640+0.01 mg/mi bovine insulin+20% FBS+1% Glutamax
as §3

T1 sequence (P50613 whole entry): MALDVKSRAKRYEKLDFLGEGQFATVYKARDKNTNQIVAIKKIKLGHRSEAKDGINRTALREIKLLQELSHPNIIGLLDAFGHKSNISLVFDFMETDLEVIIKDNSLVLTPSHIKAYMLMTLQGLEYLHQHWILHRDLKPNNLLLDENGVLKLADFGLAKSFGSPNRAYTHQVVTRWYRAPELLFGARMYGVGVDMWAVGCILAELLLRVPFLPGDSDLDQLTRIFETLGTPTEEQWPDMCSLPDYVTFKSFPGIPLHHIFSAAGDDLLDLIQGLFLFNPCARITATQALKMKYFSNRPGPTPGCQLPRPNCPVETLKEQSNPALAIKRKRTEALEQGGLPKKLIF
T1 sequence (P51946 whole entry partner): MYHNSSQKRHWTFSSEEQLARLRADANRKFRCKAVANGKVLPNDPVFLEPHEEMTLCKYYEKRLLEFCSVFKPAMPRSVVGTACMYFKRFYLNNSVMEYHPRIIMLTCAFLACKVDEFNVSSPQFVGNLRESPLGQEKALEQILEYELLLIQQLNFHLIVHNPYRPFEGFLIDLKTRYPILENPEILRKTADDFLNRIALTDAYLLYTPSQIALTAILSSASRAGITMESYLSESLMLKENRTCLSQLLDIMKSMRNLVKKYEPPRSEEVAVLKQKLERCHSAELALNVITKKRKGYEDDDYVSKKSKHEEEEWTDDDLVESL
T1 sequence (P51948 whole entry partner): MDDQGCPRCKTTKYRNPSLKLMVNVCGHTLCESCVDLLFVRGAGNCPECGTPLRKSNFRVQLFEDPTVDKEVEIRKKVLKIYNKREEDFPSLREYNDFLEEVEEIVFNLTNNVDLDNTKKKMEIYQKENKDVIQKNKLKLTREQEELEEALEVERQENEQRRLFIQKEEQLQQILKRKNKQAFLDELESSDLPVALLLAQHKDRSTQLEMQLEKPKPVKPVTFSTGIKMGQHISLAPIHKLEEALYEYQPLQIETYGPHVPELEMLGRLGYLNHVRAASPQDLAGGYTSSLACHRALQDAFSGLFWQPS

`CC(C)n1cnc2c(NCc3ccccc3-n3ccc(C(=O)N4CCN(CCO)CC4)n3)nc(N3CCC(N)CC3)nc21` [Compound I-2, (1-(2-(((2-(4-aminopiperidin-1-yl)-9-isopropyl-9H-purin-6-yl)amino)methyl)phenyl)-1H-pyrazol-3-yl)(4-(2-hydroxyethyl)piperazin-1-yl)methanone] showed an IC50 (CDK7/Cyclin H/MAT1) of less than 100 nM, an IC50 (HCC70) of 200 to 5000 nM and an IC50 (OVCAR3) of 200 to 5000 nM.

Compound `CC(C)n1cnc2c(NCc3ccccc3-n3ccc(C(=O)N4CCN(C)CC4)n3)nc(N3CCC(N)CC3)nc21` [Compound I-3, (1-(2-(((2-(4-aminopiperidin-1-yl)-9-isopropyl-9H-purin-6-yl)amino)methyl)phenyl)-1H-pyrazol-3-yl)(4-methylpiperazin-1-yl)methanone] has an IC50 (CDK7/Cyclin H/MAT1) of less than 100 nM, an IC50 (HCC70) of 200 to 5000 nM and an IC50 (OVCAR3) of 200 to 5000 nM.

Compound `CC(C)N1CCN(c2ccn(-c3ccccc3CNc3nc(N4CCC(N)CC4)nc4c3ncn4C(C)C)n2)CC1` [Compound I-4, 2-(4-aminopiperidin-1-yl)-9-isopropyl-N-(2-(3-(4-isopropylpiperazin-1-yl)-1H-pyrazol-1-yl)benzyl)-9H-purin-6-amine hydrochloride] has an IC50 (CDK7/Cyclin H/MAT1) of less than 100 nM, an IC50 (HCC70) of less than 200 nM and an IC50 (OVCAR3) of less than 200 nM.

With `CC(C)n1nccc1-c1ncccc1CNc1nc(N2CCC(N)CC2)nc2c1ncn2C(C)C` [Compound I-6, 2-(4-aminopiperidin-1-yl)-9-isopropyl-N-((2-(1-isopropyl-1H-pyrazol-5-yl)pyridin-3-yl)methyl)-9H-purin-6-amine] the IC50 (CDK7/Cyclin H/MAT1) was less than 100 nM, the IC50 (HCC70) was less than 200 nM and the IC50 (OVCAR3) was less than 200 nM.

`CCn1cnc2c(NCc3ccccc3-n3cccn3)nc(N3CCC(N)CC3)nc21` [Compound I-7, N-(2-(1H-pyrazol-1-yl)benzyl)-2-(4-aminopiperidin-1-yl)-9-ethyl-9H-purin-6-amine hydrochloride] gave an IC50 (CDK7/Cyclin H/MAT1) of less than 100 nM, an IC50 (HCC70) of 200 to 5000 nM and an IC50 (OVCAR3) of 200 to 5000 nM.

`CC(C)n1cnc2c(NCc3ccccc3-c3cnn(C)c3)nc(N3CCC(N)CC3)nc21` [Compound I-8, 2-(4-aminopiperidin-1-yl)-9-isopropyl-N-(2-(1-methyl-1H-pyrazol-4-yl)benzyl)-9H-purin-6-amine] showed an IC50 (CDK7/Cyclin H/MAT1) of less than 100 nM, an IC50 (HCC70) of 200 to 5000 nM and an IC50 (OVCAR3) of less than 200 nM.

`CC(C)n1cnc2c(NCc3ccccc3-n3cccn3)nc(N3CCC[C@H](N)C3)nc21` [Compound I-10, (S)—N-(2-(1H-pyrazol-1-yl)benzyl)-2-(3-aminopiperidin-1-yl)-9-isopropyl-9H-purin-6-amine] showed an IC50 (CDK7/Cyclin H/MAT1) of less than 100 nM, an IC50 (HCC70) of 200 to 5000 nM and an IC50 (OVCAR3) of 200 to 5000 nM.

`CC(C)n1cnc2c(NCc3ccccc3-c3ccnn3C)nc(N3CCC(N)CC3)nc21` [Compound I-12, 2-(4-aminopiperidin-1-yl)-9-isopropyl-N-(2-(1-methyl-1H-pyrazol-5-yl)benzyl)-9H-purin-6-amine] gave an IC50 (CDK7/Cyclin H/MAT1) of less than 100 nM, an IC50 (HCC70) of less than 200 nM and an IC50 (OVCAR3) of less than 200 nM.

Compound `CC(C)n1cnc2c(NCc3ccccc3-n3ccc(C(C)(C)O)n3)nc(N3CCC(N)CC3)nc21` [Compound I-16, 2-(1-(2-(((2-(4-aminopiperidin-1-yl)-9-isopropyl-9H-purin-6-yl)amino)methyl)phenyl)-1H-pyrazol-3-yl)propan-2-ol] has an IC50 (CDK7/Cyclin H/MAT1) of less than 100 nM, an IC50 (HCC70) of less than 200 nM and an IC50 (OVCAR3) of less than 200 nM.

Work on `CNC1CCN(c2nc(NCc3ccccc3-n3cccn3)c3ncn(C(C)C)c3n2)CC1` [Compound I-19, N-(2-(1H-pyrazol-1-yl)benzyl)-9-isopropyl-2-(4-(methylamino)piperidin-1-yl)-9H-purin-6-amine] yielded an IC50 (CDK7/Cyclin H/MAT1) of less than 100 nM, an IC50 (HCC70) of less than 200 nM and an IC50 (OVCAR3) of less than 200 nM.
